Results on one molecule are retold here after US6576632B1, “Biaryl compounds useful as anticancer agents” (Pfizer Inc, priority 1999, dated 2003).

Each structure is given as a SMILES string.

One may read the melting point as the temperature, or range, at which the solid turns liquid.

Molecule `O=C(O)c1cccc(-c2cccc(CC(=O)N(Cc3ccccc3)[C@@H]3c4ccccc4CC[C@H]3Cc3ccccc3)c2)c1` (relative stereo) [Example 1, trans-3′-{[Benzyl-(2-benzyl-1,2,3,4-tetrahydro-naphthalen-1-yl)-carbamoyl]-methyl}-biphenyl-3-carboxylic acid] had a melting point of 171 to 172 °C.
